Test results reported in ChEMBL document CHEMBL1201862, “PubChem BioAssay data set” (2004).
Values joined by “and” are separate entries in the source; they are usually repeats but may differ in a detail not shown here. Equal entries are not always repeated.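 Growth conditions: 96-well plates. Treatment: test compound, 48 hours, 5 concentrations. Analysis: linear interpolation between bracketing concentrations; unreached endpoints set to highest concentration. Here, GI50 denotes the concentration required for 50% inhibition of growth.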 Active and inactive are the calls of the source. Cut-off read from the data, not from the text of the source: active = GI50 up to about 1.1 µM and inactive = higher.

Tests used:
Assay in all cases: NCI-60 cell line screen, 48 h
786-0 = test system: 786-0
A498 = test system: A498
ACHN = test system: ACHN
CAKI-1 = test system: CAKI-1
CCRF-CEM = test system: CCRF-CEM
DMS-273 = test system: DMS-273
HL-60 = test system: HL-60
HOP-62 = test system: HOP-62
HOP-92 = test system: HOP-92
HT-29 = test system: HT-29
IGROV-1 = test system: IGROV-1
K562 = test system: K562
KM-20L2 = test system: KM-20L2
KM12 = test system: KM12
LXFL 529 = test system: LXFL 529
MOLT-4 = test system: MOLT-4
Malme-3M = test system: Malme-3M
NCI-H226 = test system: NCI-H226
OVCAR-4 = test system: OVCAR-4
OVCAR-5 = test system: OVCAR-5
OVCAR-8 = test system: OVCAR-8
RXF 393 = test system: RXF 393
RXF 631 = test system: RXF 631
SF-268 = test system: SF-268
SF-295 = test system: SF-295
SF-539 = test system: SF-539
SK-OV-3 = test system: SK-OV-3
SN12C = test system: SN12C
SNB-19 = test system: SNB-19
SNB-78 = test system: SNB-78
TK-10 = test system: TK-10
UACC-257 = test system: UACC-257
UACC-62 = test system: UACC-62
UO-31 = test system: UO-31
XF498 = test system: XF498
A549 = test system: A549
HCT-116 = test system: HCT-116
M14 = test system: M14
NCI-H23 = test system: NCI-H23
NCI-H522 = test system: NCI-H522
RPMI-8226 = test system: RPMI-8226
SK-MEL-28 = test system: SK-MEL-28
SR = test system: SR
SW-620 = test system: SW-620
HCC 2998 = test system: HCC 2998
LOX IMVI = test system: LOX IMVI
M19-MEL = test system: M19-MEL
NCI-H460 = test system: NCI-H460
OVCAR-3 = test system: OVCAR-3
SNB-75 = test system: SNB-75
U-251 = test system: U-251

Measured: GI50

FC(F)(F)c1cc(C2SCc3nc4ccccc4n32)cc(C(F)(F)F)c1 (stereo not given)
inactive: 786-0 11.4 µM | A498 > 100 µM | ACHN > 100 µM | CAKI-1 4.24 µM | CCRF-CEM 4.51 µM | DMS-273 3.65 µM | HL-60 3.87 µM | HOP-62 5.5 µM | HOP-92 20.4 µM | HT-29 3.46 µM | IGROV-1 8.13 µM | K562 2.97 µM | KM-20L2 3.37 µM | KM12 4.68 µM | LXFL 529 > 100 µM | MOLT-4 2.97 µM | Malme-3M 2.92 µM | NCI-H226 6.41 µM | OVCAR-4 > 100 µM | OVCAR-5 > 100 µM | OVCAR-8 10.3 µM | RXF 393 14.8 µM | RXF 631 10.6 µM | SF-268 44.9 µM | SF-295 5 µM | SF-539 24.6 µM | SK-OV-3 20.5 µM | SN12C 2.9 µM | SNB-19 76 µM | SNB-78 36.7 µM | TK-10 > 100 µM | UACC-257 > 100 µM | UACC-62 3.87 µM | UO-31 > 100 µM | XF498 8.45 µM

Clc1ccc2c(c1)[nH]c1c2nc2ccccn21
inactive: 786-0 22.1 µM | A498 27.1 µM | A549 50.1 µM | HCT-116 21.2 µM | HT-29 21.9 µM | IGROV-1 30.8 µM | KM-20L2 27.9 µM | KM12 19.3 µM | M14 24.7 µM | NCI-H226 22.4 µM | NCI-H23 24.7 µM | NCI-H522 19.5 µM | RPMI-8226 23.7 µM | RXF 631 43 µM | SF-268 28.6 µM | SF-539 22.6 µM | SK-MEL-28 21.3 µM | SK-OV-3 30.3 µM | SNB-19 22.4 µM | SNB-78 24 µM | SR 25.1 µM | SW-620 18.5 µM | TK-10 > 10 µM | UACC-257 29.2 µM | UO-31 19.5 µM

CC1OC(n2ncc(=O)[nH]c2=O)C=CC1=O (stereo not given)
inactive: 786-0 36.3 µM and 55.2 µM | A549 > 100 µM | ACHN 27.9 µM and 37.9 µM | CAKI-1 > 100 µM | HCC 2998 > 100 µM | HCT-116 30.4 µM and 55.8 µM | HL-60 26.2 µM and 23.7 µM | HT-29 41.8 µM and 52.6 µM | IGROV-1 > 100 µM | K562 33.1 µM and 44 µM | KM12 46.1 µM and 63 µM | LOX IMVI > 100 µM | LXFL 529 > 100 µM and 59 µM | M19-MEL 50.8 µM and 71.3 µM | Malme-3M 22.1 µM and 18.8 µM | NCI-H226 > 100 µM | NCI-H460 > 100 µM and 63.1 µM | NCI-H522 20 µM and 18.8 µM | OVCAR-3 95.3 µM | OVCAR-4 > 100 µM | OVCAR-5 > 100 µM | OVCAR-8 37.3 µM and 41.1 µM | RPMI-8226 33 µM and 24.3 µM | RXF 631 13.1 µM and 16.4 µM | SF-295 52.6 µM | SF-539 40.2 µM and 24.2 µM | SK-MEL-28 31.9 µM and 21.8 µM | SN12C 70.3 µM and 35.8 µM | SNB-75 44.5 µM and 55.5 µM | SNB-78 21.5 µM and 26.9 µM | SR 26.7 µM and 33.5 µM | TK-10 > 100 µM and 71.4 µM | U-251 50.7 µM and 41.2 µM | UACC-62 31.8 µM and 60.4 µM | UO-31 > 100 µM
